Laboratory results: the supplement of paper PMC10307832

Experiments:
Test in all cases: relative viability (nuclei count vs DMSO), 5 days (fraction); higher = more cells survive
VE-821 + Palbociclib = compound: CS(=O)(=O)c1ccc(-c2cnc(N)c(C(=O)Nc3ccccc3)n2)cc1 [VE-821] + CC(=O)c1c(C)c2cnc(Nc3ccc(N4CCNCC4)cn3)nc2n(C2CCCC2)c1=O [Palbociclib] (partner 0.5 µM)
Outline: (§1)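 After 5 days of treatment, lung cancer cells in 1536-well plates were fixed and stained in a single step (final 0.05% Triton X-100, 1% formaldehyde, 1 ug/ml Hoechst) and their nuclei counted on 4× images. Treatment had been applied by pin tool the day after seeding as one drug alone or as a fixed anchor-drug dose with five library-drug doses (not always all listed) in √10 steps. Relative viability is the nuclei count of treated wells divided by that of vehicle wells, and values are medians of duplicate plates.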

Vismodegib + Tozasertib = compound: CS(=O)(=O)c1ccc(C(=O)Nc2ccc(Cl)c(-c3ccccn3)c2)c(Cl)c1 [Vismodegib] + Cc1cc(Nc2cc(N3CCN(C)CC3)nc(Sc3ccc(NC(=O)C4CC4)cc3)n2)n[nH]1 [Tozasertib] (partner 0.1 µM)
Outline: as §1

Ruxolitinib + Navitoclax = compound: N#CC[C@H](C1CCCC1)n1cc(-c2ncnc3[nH]ccc23)cn1 [Ruxolitinib] + CC1(C)CCC(c2ccc(Cl)cc2)=C(CN2CCN(c3ccc(C(=O)NS(=O)(=O)c4ccc(N[C@H](CCN5CCOCC5)CSc5ccccc5)c(S(=O)(=O)C(F)(F)F)c4)cc3)CC2)C1 [Navitoclax] (partner 0.5 µM)
Outline: as §1

Ruxolitinib + AZD7762 = compound: N#CC[C@H](C1CCCC1)n1cc(-c2ncnc3[nH]ccc23)cn1 [Ruxolitinib] + NC(=O)Nc1cc(-c2cccc(F)c2)sc1C(=O)N[C@H]1CCCNC1 [AZD7762] (partner 0.2 µM)
Outline: as §1

Cell Line	relative viability (VE-821 + Palbociclib; first compound 0.08 µM)	relative viability (VE-821 + Palbociclib; first compound 0.253 µM)	relative viability (VE-821 + Palbociclib; first compound 0.8 µM)	relative viability (VE-821 + Palbociclib; first compound 2.53 µM)	relative viability (VE-821 + Palbociclib; first compound 8 µM)	relative viability (Vismodegib + Tozasertib; first compound 0.08 µM)	relative viability (Vismodegib + Tozasertib; first compound 0.253 µM)	relative viability (Vismodegib + Tozasertib; first compound 0.8 µM)	relative viability (Vismodegib + Tozasertib; first compound 2.53 µM)	relative viability (Vismodegib + Tozasertib; first compound 8 µM)	relative viability (Ruxolitinib + Navitoclax; first compound 0.08 µM)	relative viability (Ruxolitinib + Navitoclax; first compound 0.253 µM)	relative viability (Ruxolitinib + Navitoclax; first compound 0.8 µM)	relative viability (Ruxolitinib + Navitoclax; first compound 2.53 µM)	relative viability (Ruxolitinib + Navitoclax; first compound 8 µM)	relative viability (Ruxolitinib + AZD7762; first compound 0.08 µM)	relative viability (Ruxolitinib + AZD7762; first compound 0.253 µM)	relative viability (Ruxolitinib + AZD7762; first compound 0.8 µM)	relative viability (Ruxolitinib + AZD7762; first compound 2.53 µM)	relative viability (Ruxolitinib + AZD7762; first compound 8 µM)
201T	0.37	0.35	0.355	0.318	0.325	0.914	0.919	0.987	0.946	0.966	1.25	1.31	1.44	1.48	1.36	0.583	0.622	0.595	0.649	0.763
A549	–	–	–	–	–	–	–	–	–	–	1.2	1.16	1.21	0.961	0.508	–	–	–	–	–
A-427	0.55	0.547	0.565	0.562	0.449	0.233	0.193	0.22	0.196	0.21	1	0.939	0.959	0.917	0.8	0.821	0.763	0.729	0.453	0.508
ABC-1	0.651	0.788	0.601	0.695	0.633	0.15	0.153	0.182	0.184	0.158	–	–	–	–	–	–	1.07	0.834	0.743	0.928
BEN	0.504	0.461	0.469	0.517	0.642	0.545	0.555	0.513	0.605	0.466	0.0601	0.0767	0.0749	0.0665	0.0571	0.777	0.655	0.793	0.813	0.827
CAL-12T	0.571	0.373	0.472	0.51	0.308	0.301	0.28	0.321	0.35	0.328	1.1	1.23	1.14	1.15	1.07	0.623	0.688	0.694	0.732	0.608
COR-L23	0.284	0.307	0.32	0.394	0.307	0.203	0.218	0.181	0.177	0.168	1.03	1.1	1.21	0.907	0.638	–	–	–	–	–
COR-L 105	0.432	0.339	0.443	0.409	0.399	0.357	0.335	0.25	0.374	0.391	0.707	0.701	0.89	0.694	0.515	–	–	–	–	–
Calu-6	–	–	–	–	–	–	–	–	–	–	0.836	0.858	0.862	0.767	0.294	–	–	–	–	–
ChaGo-K-1	0.95	0.956	0.909	0.905	0.803	0.239	0.193	0.214	0.236	0.212	–	0.861	0.796	0.986	0.734	0.909	0.853	0.869	0.834	0.703
EBC-1	–	–	–	–	–	–	–	–	–	–	0.372	0.435	0.402	0.347	0.237	–	–	–	–	–
EKVX	0.458	0.361	0.341	0.429	0.4	0.392	0.358	0.409	0.414	0.373	1	0.872	0.881	0.821	0.912	–	0.77	0.848	0.799	0.698
EMC-BAC-2	0.531	0.491	0.528	0.545	0.524	0.281	0.284	0.288	0.292	0.316	1.11	1.13	1.18	1.09	1.06	1.07	1.03	1.3	1.08	0.695
EPLC-272H	0.342	0.313	0.295	0.33	0.326	0.254	0.273	0.34	0.348	0.148	1.48	1.14	1.31	1.05	0.954	0.321	0.267	0.244	0.285	0.316
H3255	0.288	0.332	0.332	0.326	0.319	0.524	0.55	0.623	0.606	0.563	0.248	0.393	0.474	0.423	0.425	0.783	0.868	1.08	0.774	0.743
HARA	0.227	0.29	0.239	0.279	0.299	0.124	0.126	0.112	0.097	0.0937	1.14	1.11	1.17	1.14	1.25	0.344	0.365	0.377	0.0804	0.304
HCC-15	0.822	0.767	0.809	0.907	0.748	0.415	0.444	0.386	0.399	0.424	0.688	0.686	0.699	0.629	0.567	1.09	0.878	1.23	1.12	1.17
HCC-44	0.956	0.981	0.992	1.08	1.07	0.951	0.836	0.877	0.832	0.993	0.991	1.14	0.966	0.664	0.394	0.947	1.05	1	0.994	1.05
HCC-78	0.491	0.453	0.482	0.489	0.461	0.352	0.454	0.502	0.304	0.41	0.663	0.528	0.692	0.604	0.702	0.695	0.484	0.481	0.631	0.628
